Legend:
[1] = test system: C-terminal of thioredoxin; assay: Labeling of translated protein in cell-free transcription-translation system of E. coli; assay type: biochemical; settings: for linkage to the C-terminal of thioredoxin: cell-free transcription-translation system of E. coli
Experimental: rCpPur (30 pmol) was phosphorylated by T4 polynucleotide kinase (10 units) in the presence of γ-^33P-ATP (9.25 MBq). The reaction was carried out under the condition of 37° C. for 1 hour. After the reaction was over, the reaction mixture was heated at 70° C. for 20 minutes to inactivate the enzyme.
Labeling reaction was carried out using a cell-free transcription-translation system of E. coli. The reaction mixture (25 μl) of the cell-free transcription-translation system of E. coli had the following composition: 7.5 μl of E. coli S30 extract (containing T7 RNA polymerase), 10 μl of E. coli S30 premix, 2.5 μl of an amino acid mixed solution, 1 μl of an RNase inhibitor, 1 μg of plasmid (thioredoxin), and 0.0003 to 0.3 μM (final concentration) of the ^33P-rCpPur described above. As a control, the reaction was carried out also in a system containing ^35S-methionine (1.2 μM). After the reaction was carried out at 37° C. for 30 minutes, precipitation was performed with acetone. A buffer solution (pH 8) containing 1% SDS was added to the precipitate, and then heated at 90° C. for 5 minutes for dissolution, separated by SDS-15% polyacrylamide gel electrophoresis, and analyzed using an image analyzer (Fuji Photo Film, BAS 2000). […] When the concentration of ^33P-rCpPur was 0.3 μM, a distinct band corresponding to the full-length thioredoxin was detected at the position of apparent molecular weight of 12 kDa. […] The band with an apparent molecular weight of 12 kDa was detected even when labeled with ^35S-methionine (final concentration: 1.2 μM) (FIG. 3).
Fluorescent labeling of a protein by a cell-free transcription-translation system of E. coli in the presence of Fluorpur and Fluorthiopur was examined. […] After the reaction was carried out at 37° C. for 30 minutes, precipitation was performed with acetone. A buffer solution (pH 8) containing 1% SDS was added to the precipitate, then heated at 90° C. for 5 minutes for dissolution, separated by SDS-15% polyacrylamide gel electrophoresis, and detected for fluorescent bands of protein using a fluorescent gel scanner (Fluor Imager 585, Molecular Dynamics). Measurement was made at an excitation wavelength of 488 nm and an emission wavelength of 520 nm. FIGS. 4A, 4B and 4C show the results of fluorescent labeling of thioredoxin with Fluorpur and Fluorthiopur. For both Fluorpur and Fluorthiopur in a concentration ranges of 0.36 to 1.44 μM, fluorescent bands were detected at the position of apparent molecular weight of 12 kDa indicated by an arrow (FIGS. 4A and 4B).

[2] = test system: full-length protein of thioredoxin; assay: Labeling of thioredoxin in cell-free transcription-translation system containing nuclease treated rabbit reticulocyte lysate; assay type: biochemical, E. coli
Experimental: (§1) The fluorescent labeling of the full-length protein of thioredoxin with Fluorpur and Fluorthiopur was confirmed also in a cell-free transcription-translation system containing nuclease treated rabbit reticulocyte lysate or wheat germ lysate. The respective optimal concentrations of Fluorpur and Fluorthiopur necessary for fluorescent labeling were 0.3 to 50 μM in the system containing nuclease treated rabbit reticulocyte lysate and 10 to 50 μM in the case of the system containing wheat germ lysate.

[3] = test system: full-length protein of thioredoxin; assay: Labeling of thioredoxin in cell-free transcription-translation system containing wheat germ lysate; assay type: biochemical, E. coli
Experimental: as §1

[4] = test system: protein synthesis of bacteria; settings: cited from earlier work
[5] = test system: protein synthesis of animal cells; settings: cited from earlier work

Row | Compound | band with an apparent molecular weight of 12 kDa ([1]; control label, final concentration 1.2 μM) | linkage to the C-terminal of thioredoxin [1] | labeling of the full-length protein of thioredoxin [2] | labeling of the full-length protein of thioredoxin [3] | incorporation compared with Fluorpur ([1]; fluorescent labeling of thioredoxin, E. coli system) | inhibition of protein synthesis [4] | inhibition of protein synthesis [5]
1 | CSCC[C@H](N)C(=O)O [^35S-methionine, reference compound] | detected |  |  |  |  |  | 
2 | fluoresceinylphosphopuromycin [Fluorpur] |  | linked to the C-terminal of the full-length protein | can be confirmed | can be confirmed |  |  | 
3 | fluoresceinylthiophophopuromycin [Fluorthiopur] |  | linked to the C-terminal of the full-length protein | can be confirmed | can be confirmed | more or less efficiently |  | 
4 | COc1ccc(C[C@H](N)C(=O)N[C@H]2[C@@H](O)[C@H](n3cnc4c(N(C)C)ncnc43)O[C@@H]2CO)cc1 [puromycin, 3′-[α-amino-p-methoxyhydro-cinnamamido]-3′-deoxy-N,N′-dimethyladenosine] |  |  |  |  |  | inhibit the protein synthesis | inhibit the protein synthesis

From patent US7041446B2, “Labeled protein and its producing method, labeling compound to be used in the method, and method for analyzing function of genes” (priority 1998, dated 2006)
